“Also recorded” adds a separate entry of the source. No end group written: not given here.

One assay concerns PXL2^LRR. As to the kind of experiment: In vitro GST pull-down, PXL2^LRR. To be noted: GS4B resin, wash 10 mM Bis-Tris pH 6.0, 100 mM NaCl; SDS-PAGE, Coomassie blue; Figure 1A. In kind it is binding, Arabidopsis.
For the next assay, the system named is PXL1^LRR. Briefly: In vitro GST pull-down, PXL1^LRR. It is filed as binding, Arabidopsis. Particulars: GS4B resin, wash 10 mM Bis-Tris pH 6.0, 100 mM NaCl; SDS-PAGE, Coomassie blue; Figure 1A.
Assay [1] concerns the target T1, extracellular LRR domain of PXY (PXY^LRR, residues 1-647) (Arabidopsis, UniProt Q9FII5 30-647).
T1 sequence: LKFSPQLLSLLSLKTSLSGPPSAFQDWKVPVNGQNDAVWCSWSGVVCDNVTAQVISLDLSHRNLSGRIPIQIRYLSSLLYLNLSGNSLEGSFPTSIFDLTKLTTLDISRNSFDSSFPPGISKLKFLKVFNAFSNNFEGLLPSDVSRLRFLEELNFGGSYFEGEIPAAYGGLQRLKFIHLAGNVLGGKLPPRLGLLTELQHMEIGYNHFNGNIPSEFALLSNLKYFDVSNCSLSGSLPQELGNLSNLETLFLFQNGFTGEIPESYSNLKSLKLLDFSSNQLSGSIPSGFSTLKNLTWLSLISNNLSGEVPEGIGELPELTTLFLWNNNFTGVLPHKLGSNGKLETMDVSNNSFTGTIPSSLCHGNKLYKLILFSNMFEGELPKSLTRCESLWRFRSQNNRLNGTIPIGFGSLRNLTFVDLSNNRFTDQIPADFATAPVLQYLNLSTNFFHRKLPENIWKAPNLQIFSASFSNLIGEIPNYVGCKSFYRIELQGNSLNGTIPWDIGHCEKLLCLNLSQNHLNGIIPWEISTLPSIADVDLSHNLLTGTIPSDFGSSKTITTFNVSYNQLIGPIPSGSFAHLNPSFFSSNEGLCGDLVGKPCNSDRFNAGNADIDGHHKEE
Briefly: ITC. For orientation: Isothermal titration calorimetry measures the heat released or taken up as one component is titrated into another.

In assay [2] the target is T1, extracellular LRR domain of PXY …. Briefly: pull-down.

Take “GST-TDIF: GST tagged-TDIF protein expressed in E. coli strain BL21 (DE3) (HEVPSGPNPISN; also: GST tag, end not given here)”: in the assay on PXL2^LRR, the “interaction with PXL2^LRR in pull-down” value is “can pull-down; also recorded: much lower affinities”. The “interaction with PXL1^LRR in pull-down” value in the assay with PXL1^LRR is “can pull-down; also recorded: much lower affinities”. As to REVPSGPNPISN [synthetic mutant peptide TDIF^H1R], in assay [1], the Kd is approximately 68 nM.

As to HEVPSGPNPISN [recombinant GST-TDIF], the binding result in assay [2] is “binds”.

A word on the Kd: it is a measure of binding affinity in units of concentration. The low end stands for a tighter complex, the high end for a looser complex.

The record behind these values is PMC4856767 (Cell Research, 2016).
